# Test results from EPA's ToxRefDB 2.
# Experiments:
# [1] = tested on: dog; conditions: Subchronic oral toxicity in nonrodent, beagle, Capsule, dose end: 13 week, group: systemic
# [2] = tested on: rat; conditions: Subchronic oral toxicity in rodents, fischer, Feed, dose end: 13 week, group: systemic
# [3] = tested on: rabbit; conditions: Prenatal developmental toxicity study; new zealand white; Oral; Gavage/Intubation; dose end: 19 GD; group: maternal; systemic / in life observation / body weight / body weight gain + systemic / in life observation / clinical signs / altered breathing rate…
# [4] = tested on: dog; conditions: Chronic toxicity; beagle; Oral; Capsule; dose end: 52 week; group: systemic; systemic / hematology / mean corpuscular hemoglobin (mch) / mean corpuscular hemoglobin (mch) + systemic / hematology / mean corpuscular …
# [5] = tested on: mouse; conditions: Carcinogenicity, cd1, Oral, Feed, dose end: 80 week, group: systemic
# [6] = tested on: rat; conditions: Multigenerational reproductive toxicity study, sprague dawley, Oral, Feed, dose end: 2 generation; for LEL / NEL: systemic / organ weight / liver / relative to body weight
# [7] = tested on: rat; conditions: Combined chronic toxicity/carcinogenicity, fischer, Oral, Feed, dose end: 104 week, group: systemic
# [8] = tested on: rat; conditions: Prenatal developmental toxicity study, sprague dawley, Oral, Gavage/Intubation, dose end: 15 GD
# [9] = systemic / clinical chemistry / glucose / glucose + systemic / clinical chemistry / alanine aminotransferase (alt/sgpt) / alanine …
# [10] = systemic / clinical chemistry / cholesterol / cholesterol + systemic / hematology / hematocrit (hct) / hematocrit (hct) + systemic / …
# [11] = systemic / hematology / hematocrit (hct) / hematocrit (hct)
# [12] = group: parental, systemic / in life observation / body weight / body weight gain + systemic / organ weight / liver / relative to body weight + systemic / …
# [13] = systemic / clinical chemistry / protein / protein
# [14] = group: developmental, developmental / developmental malformation / bone / full supernumerary
# [15] = group: developmental, developmental / developmental malformation / bone / full supernumerary + developmental / developmental malformation / bone / incomplete …
# [16] = group: maternal, systemic / organ weight / placenta / nos
# [17] = group: maternal, systemic / organ weight / placenta / nos + systemic / in life observation / body weight / body weight + systemic / in life observation / …
smiles,measurement,setting,value
Clc1ccc(C2(Cn3cncn3)CC(Br)CO2)c(Cl)c1 (centres undefined) [Bromuconazole],LOAEL,[1]; systemic / clinical chemistry / glucose / glucose,25 mg/kg/day
same,NEL,[1]; [9],2.5 mg/kg/day
same,NOAEL,[1]; [9],2.5 mg/kg/day
same,LEL,[1]; systemic / clinical chemistry / glucose / glucose + systemic / organ weight / liver / relative to body weight,25 mg/kg/day
same,LOAEL,[2]; [10],68.1 mg/kg/day
same,NOAEL,[2]; [10],13.8 mg/kg/day
same,LEL,[2]; [11],2.72 mg/kg/day
same,NEL,[2]; [11],< 2.72 mg/kg/day
same,LEL,[3],50 mg/kg/day
same,LOAEL,[3],50 mg/kg/day
same,NEL,[3],12.5 mg/kg/day
same,NOAEL,[3],12.5 mg/kg/day
same,LEL,[4],25 mg/kg/day
same,LOAEL,[4],25 mg/kg/day
same,NEL,[4],2.5 mg/kg/day
same,NOAEL,[4],2.5 mg/kg/day
same,LOAEL,[5]; systemic / in life observation / body weight / body weight gain,113 mg/kg/day
same,NOAEL,[5]; systemic / in life observation / body weight / body weight gain + systemic / pathology microscopic / liver / adenoma + systemic / organ …,10.8 mg/kg/day
same,NEL,[5]; systemic / organ weight / liver / absolute + systemic / organ weight / liver / relative to body weight + systemic / organ weight / adrenal …,370 mg/kg/day
same,LOAEL,"[6]; group: offspring, systemic / in life observation / body weight / offspring (pup) weight gain",141 mg/kg/day
same,NOAEL,"[6]; group: offspring, systemic / in life observation / body weight / offspring (pup) weight gain + developmental / offspring survival late / viability index / …",13.8 mg/kg/day
same,LEL,[6]; group: offspring,1.6 mg/kg/day
same,NEL,[6]; group: offspring,< 1.6 mg/kg/day
same,LOAEL,[6]; [12],141 mg/kg/day
same,NOAEL,[6]; [12],13.8 mg/kg/day
same,LEL,[6]; group: parental,1.3 mg/kg/day
same,NEL,[6]; group: parental,< 1.3 mg/kg/day
same,LEL,[7]; [13],0.88 mg/kg/day
same,NEL,[7]; [13],< 0.88 mg/kg/day
same,LOAEL,[7]; systemic / pathology microscopic / liver / vacuolization,8.27 mg/kg/day
same,NOAEL,[7]; systemic / pathology microscopic / liver / vacuolization + systemic / in life observation / body weight / body weight + systemic / in life …,1.09 mg/kg/day
same,LEL,[8]; [14],70 mg/kg/day
same,LOAEL,[8]; [14],70 mg/kg/day
same,NEL,[8]; [15],10 mg/kg/day
same,NOAEL,[8]; [15],10 mg/kg/day
same,LEL,[8]; [16],70 mg/kg/day
same,LOAEL,[8]; [16],70 mg/kg/day
same,NEL,[8]; [17],10 mg/kg/day
same,NOAEL,[8]; [17],10 mg/kg/day
